≈ marks a conversion by molar mass, not a printed value.
Legend:
Type in all cases: functional
Settings in all cases: read-out: ED50 (the source's name)
XF498 = experiment: Cytotoxicity against human XF498 cells by SRB assay
SK-MEL-2 = experiment: Cytotoxicity against human SK-MEL-2 cells by SRB assay
HCT-15 = experiment: Cytotoxicity against human HCT15 cells by SRB assay
A549 = experiment: Cytotoxicity against human A549 cells by SRB assay
SK-OV-3 = experiment: Cytotoxicity against human SKOV3 cells by SRB assay

Structure (SMILES) | EC50 (XF498) | EC50 (SK-MEL-2) | EC50 (HCT-15) | EC50 (A549) | EC50 (SK-OV-3)
C=C1C(=O)O[C@@H]2[C@@H]1[C@H](OC(=O)C(C)CC)C(=O)[C@@H](C)C[C@H](O)C[C@](C)(O)[C@H]2OC(=O)C(C)C (stereo not given in full) [CARDIVIN B] | 1.69 µg/mL (≈ 3.61 µM) | 1.45 µg/mL (≈ 3.09 µM) | 2.06 µg/mL (≈ 4.4 µM) | 3.71 µg/mL (≈ 7.92 µM) | 2.24 µg/mL (≈ 4.78 µM)
C=C1C(=O)O[C@@H]2[C@@H]1[C@H](OC(=O)C(C)C)C(=O)[C@@H](C)C[C@H](O)C[C@](C)(O)[C@H]2OC(=O)C(C)C [CARDIVIN D] | 3.05 µg/mL (≈ 6.71 µM) | 1.88 µg/mL (≈ 4.14 µM) | 3 µg/mL (≈ 6.6 µM) | 8.36 µg/mL (≈ 18.4 µM) | 3.78 µg/mL (≈ 8.32 µM)
COc1cccc2c1C(=O)c1c(O)c3c(c(O)c1C2=O)C[C@@](O)(C(=O)CO)C[C@@H]3O[C@H]1C[C@H](N)[C@H](O)[C@H](C)O1 [DOXORUBICIN] | 0.23 µg/mL (≈ 0.423 µM) | 0.11 µg/mL (≈ 0.202 µM) | 2.4 µg/mL (≈ 4.42 µM) | 0.12 µg/mL (≈ 0.221 µM) | 0.13 µg/mL (≈ 0.239 µM)
C=C1C(=O)O[C@@H]2[C@@H]1[C@H](OC(=O)C(C)C)C(=O)[C@@H](C)C[C@H](O)C[C@](C)(O)[C@H]2OC(=O)/C(C)=C\C [CARDIVIN C] | 1.31 µg/mL (≈ 2.81 µM) | 1.08 µg/mL (≈ 2.31 µM) | 1.38 µg/mL (≈ 2.96 µM) | 3.12 µg/mL (≈ 6.69 µM) | 1.6 µg/mL (≈ 3.43 µM)
C=C1C(=O)O[C@@H]2[C@@H]1[C@H](OC(=O)/C(C)=C\C)C(=O)[C@@H](C)C[C@H](O)C[C@](C)(O)[C@H]2OC(=O)C(C)CC (stereo not given in full) [CARDIVIN A] | 1.4 µg/mL (≈ 2.91 µM) | 1.16 µg/mL (≈ 2.41 µM) | 1.28 µg/mL (≈ 2.66 µM) | 3.17 µg/mL (≈ 6.6 µM) | 1.47 µg/mL (≈ 3.06 µM)

From ChEMBL document CHEMBL1158329, “Four new cytotoxic germacranolides from Carpesium divaricatum” (1997)
